Test results published in patent EP2975030B1, “DIHYDROPYRIDAZINE-3,5-DIONE DERIVATIVE” (Chugai Seiyaku Kabushiki Kaisha, priority 2013, dated 2014).

Test system: rat small-intestinal brush border membrane vesicles
Assay: Inhibitory effect on 33PO4 uptake into rat small-intestinal brush border membrane vesicles (rapid filtration method)
Assay type: biochemical, Wistar female rat
Settings: 1 µM test compound; 33PO4 uptake into rat small-intestinal BBMVs, 60 seconds
Description: The ^33PO4 transport activity of the small-intestinal BBMVs was determined by the rapid filtration method. […] Then, ice-cold buffer C (110 mM NaCl, 1 mM KH2PO4, and 10 mM HEPES (pH 7.5)) was added to each reaction mixture, which was immediately suction-filtered through a Millipore filter. The filter was washed with buffer C, and each sample was then dissolved in a liquid scintillator. The amount of ^33PO4 uptake into BBMVs was measured using a liquid scintillation counter. […]

CN(CCOc1ccc(CN2C(=O)C(C(=O)Nc3ccc(C(F)(F)F)cc3-c3cc(C(F)(F)F)ncn3)=C(O)C3(CCC3)N2C)c(F)c1F)C1COC1 [Example 402, 6-(2,3-Difluoro-4-(2-(methyl(oxetan-3-yl)amino)ethoxy)benzyl)-9-hydroxy-5-methyl-7-oxo-N-(4-(trifluorometyl)-2-(6-(trifluoromtthyl)pyrimidin-4-yl)phenyl)-5,6-diazaspiro[3.5]non-8-ene-8-carboxamide]
Rate of uptake inhibition (%) (1 µM): 54%

(4aR)-1-[(3-Fluorophenyl)methyl]-4-hydroxy-4a-methyl-N-[5-methyl-2-(trifluoromethyl)furan-3-yl]-2-oxo-6,7-dihydro-5H-pyrrolo[1,2-b]pyridazine-3-carboxamide [Example 6]
Rate of uptake inhibition (%) (1 µM): 48%

CN1N(Cc2cccc(F)c2F)C(=O)C(C(=O)Nc2ccc(Cl)cc2-c2ccc(C(F)(F)F)nc2)=C(O)C1(C)C [Example 309]
Rate of uptake inhibition (%) (1 µM): 68%

CN1N(Cc2ccc(OCCN3CCOCC3)c(F)c2F)C(=O)C(C(=O)Nc2ccc(C(F)(F)F)cc2-c2ccc(C(F)(F)F)nc2)=C(O)C1(C)C [Example 314, 2-[[2,3-Difluoro-4-(2-morpholin-4-ylethoxy)phenyl]methyl]-5-hydroxy-1,6,6-trimethyl-3-oxo-N-[4-(trifluoromethyl)-2-[6-(trifluoromethyl)pyridin-3-yl]phenyl]pyridazine-4-carboxamide]
Rate of uptake inhibition (%) (1 µM): 72%

CN(CCOc1ccc(CN2C(=O)C(C(=O)Nc3ccc(C(F)(F)F)cc3-c3cc(C(F)(F)F)ncn3)=C(O)C3(CCC3)N2C)c(F)c1F)C1CCOC1 (centres unmarked) [Example 338, 6-[[2,3-Difluoro-4-[2-[methyl(oxolan-3-yl)amino]ethoxy]phenyl]methyl]-9-hydroxy-5-methyl-7-oxo-N-[4-(trifluoromethyl)-2-[6-(trifluoromethyl)pyrimidin-4-yl]phenyl]-5,6-diazaspiro[3.5]non-8-ene-8-carboxamide]
Rate of uptake inhibition (%) (1 µM): 66%

CN1N(Cc2cccc(F)c2F)C(=O)C(C(=O)Nc2cc(F)c(Br)c(F)c2)=C(O)C12CCC2 [Example 257]
Rate of uptake inhibition (%) (1 µM): 71%

CN1N(Cc2ccc(OCCN3CCN(CCO)CC3)c(F)c2F)C(=O)C(C(=O)Nc2ccc(C(F)(F)F)cc2-c2cc(C(F)(F)F)ncn2)=C(O)C12CCC2 [Example 360]
Rate of uptake inhibition (%) (1 µM): 21%

COc1cccc(-c2cc(C(F)(F)F)ccc2NC(=O)C2=C(O)[C@@]3(C)CCCN3N(Cc3ccc(C#CCOCCO)c(F)c3F)C2=O)c1OC [Example 137]
Rate of uptake inhibition (%) (1 µM): 92%

(4aR)-1-[(2,3-Difluorophenyl)methyl]-4-hydroxy-N-[5-methyl-2-(trifluoromethyl)furan-3-yl]-2-oxo-4a-propyl-6,7-dihydro-5H-pyrrolo[1,2-b]pyridazine-3-carboxamide [Example 12]
Rate of uptake inhibition (%) (1 µM): 27%

C[C@]12CCCN1N(Cc1ccc(OCCCCCO)c(F)c1F)C(=O)C(C(=O)Nc1ccc(C(F)(F)F)cc1-c1cc(C(F)(F)F)ncn1)=C2O [Example 162]
Rate of uptake inhibition (%) (1 µM): 73%

CC(C)[C@H]1C(O)=C(C(=O)Nc2ccc(C(F)(F)F)cc2-c2ccc(C(F)(F)F)nc2)C(=O)N(Cc2cccc(F)c2F)N1C [Example 253]
Rate of uptake inhibition (%) (1 µM): 40%

CSc1ccc(-c2cc(C(F)(F)F)ccc2NC(=O)C2=C(O)[C@@]3(C)CCCN3N(Cc3ccc(OCCN4CCOCC4)c(F)c3F)C2=O)cn1 [Example 103]
Rate of uptake inhibition (%) (1 µM): 78%

CC(=O)N(C)CCN(C)CCOc1ccc(CN2C(=O)C(C(=O)Nc3ccc(C(F)(F)F)cc3-c3cc(C(F)(F)F)ncn3)=C(O)C3(CCC3)N2C)c(F)c1F [Example 354]
Rate of uptake inhibition (%) (1 µM): 31%

C[C@]12CCCN1N(Cc1cccc(F)c1)C(=O)C(C(=O)Nc1ccc(C(F)(F)F)cc1-c1ccc(C(F)(F)F)nc1)=C2O [Example 206]
Rate of uptake inhibition (%) (1 µM): 76%

Cc1c(C#N)ncnc1-c1cc(C(F)(F)F)ccc1NC(=O)C1=C(O)[C@@]2(C)CCCN2N(Cc2cccc(F)c2F)C1=O [Example 24]
Rate of uptake inhibition (%) (1 µM): 76%

C[C@]12CCCN1N(Cc1c(Cl)cc(OCCN3CCOCC3)cc1Cl)C(=O)C(C(=O)Nc1cnc(C(F)(F)F)nc1-c1ccc(C(F)(F)F)nc1)=C2O.Cl [Example 146, (4aR)-1-[[2,6-Dichloro-4-(2-morpholin-4-ylethoxy)phenyl]methyl]-4-hydroxy-4a-methyl-2-oxo-N-[2-(trifluoromethyl)-4-[6-(trifluoromethyl)pyridin-3-yl]pyrimidin-5-yl]-6,7-dihydro-5H-pyrrolo[1,2-b]pyridazine-3-carboxamide hydrochloride]
Rate of uptake inhibition (%) (1 µM): 71%

CN1N(Cc2ccc(OCCN3CCOCC3(C)C)c(F)c2F)C(=O)C(C(=O)Nc2ccc(C(F)(F)F)cc2-c2cc(C(F)(F)F)ncn2)=C(O)C12CCCC2 [Example 371]
Rate of uptake inhibition (%) (1 µM): 38%

Cc1cccc(CN2C(=O)C(C(=O)Nc3ccc(C(F)(F)F)cc3-c3cc(C(F)(F)F)ncn3)=C(O)[C@@]3(C)CCCN23)c1F [Example 215]
Rate of uptake inhibition (%) (1 µM): 86%

CN1N(Cc2ccc(C#CCN3CCOCC3)c(F)c2F)C(=O)C(C(=O)Nc2ccc(C(F)(F)F)cc2-c2cc(C(F)(F)F)ncn2)=C(O)C1(C)C [Example 315, 2-[[2,3-Difluoro-4-(3-morpholin-4-ylprop-1-ynil)phenyl]methyl]-5-hydroxy-1,6,6-trimethyl-3-oxo-N-[4-(trifluoromethyl)-2-[6-(trifluoromethyl)pyrimidin-4-yl]phenyl]pyridazine-4-carboxamide]
Rate of uptake inhibition (%) (1 µM): 63%

CC1(C)C(O)=C(C(=O)Nc2ccc(C(F)(F)F)cc2-c2cc(C(F)(F)F)ncn2)C(=O)N(Cc2cccc(F)c2F)N1c1ccccc1 [Example 299]
Rate of uptake inhibition (%) (1 µM): 45%

Cc1c(-c2cc(C(F)(F)F)ccc2NC(=O)C2=C(O)C3(CCCCC3)N(C)N(Cc3ccc(OCCN4CCOCC4)c(F)c3F)C2=O)ncnc1C(F)(F)F [Example 296]
Rate of uptake inhibition (%) (1 µM): 17%

C[C@]12CCCN1N(Cc1ccc(OCCN3CCOCC3)c(Cl)c1)C(=O)C(C(=O)Nc1ccc(C(F)(F)F)cc1-c1ccc(C(F)(F)F)nc1)=C2O [Example 149, (4aR)-1-[[3-Chloro-4-(2-morpholin-4-ylethoxy)phenyl]methyl]-4-hydroxy-4a-methyl-2-oxo-N-[4-(trifluoromethyl)-2-[6-(trifluoromethyl)pyridin-3-yl]phenyl]-6,7-dihydro-5H-pyrrolo[1,2-b]pyridazine-3-carboxamide]
Rate of uptake inhibition (%) (1 µM): 80%

C[C@]12CCCN1N(Cc1c(F)cc(OCCCCCCOC[C@H](O)CO)cc1F)C(=O)C(C(=O)Nc1ccc(C(F)(F)F)cc1-c1ccc(C(F)(F)F)nc1)=C2O [Example 155]
Rate of uptake inhibition (%) (1 µM): 77%

COCC(C)(C)N(C)CCOc1ccc(CN2C(=O)C(C(=O)Nc3ccc(C(F)(F)F)cc3-c3cc(C(F)(F)F)ncn3)=C(O)C3(CCC3)N2C)c(F)c1F [Example 349]
Rate of uptake inhibition (%) (1 µM): 55%

C[C@]12CCCN1N(Cc1ccc(C#N)cc1)C(=O)C(C(=O)Nc1cc(F)c(Br)c(F)c1)=C2O [Example 222]
Rate of uptake inhibition (%) (1 µM): 97%

CSc1ccc(-c2nc(C(F)(F)F)ccc2NC(=O)C2=C(O)[C@@]3(C)CCCN3N(Cc3cccc(F)c3F)C2=O)cn1 [Example 105]
Rate of uptake inhibition (%) (1 µM): 72%

CN1N(Cc2ccc(OCCNC(CC(=O)O)CC(=O)O)c(F)c2F)C(=O)C(C(=O)Nc2ccc(C(F)(F)F)cc2-c2cc(C(F)(F)F)ncn2)=C(O)C12CCCC2 [Example 382, 3-[2-[2,3-Difluoro-4-[[10-hydroxy-6-methyl-8-oxo-9-[[4-(trifluoromethyl)-2-[6-(trifluoromethyl)pyrimidin-4-yl]phenyl]carbamoyl]-6,7-diazaspiro[4.5]dec-9-en-7-yl]methyl]phenoxy]ethylamino]pentanedioate]
Rate of uptake inhibition (%) (1 µM): 21%

COCCN1CC[C@@H](Oc2ccc(CN3C(=O)C(C(=O)Nc4ccc(C(F)(F)F)cc4-c4cc(C(F)(F)F)ncn4)=C(O)C4(CCC4)N3C)c(F)c2F)C1 [Example 405, 6-[[2,3-Difluoro-4-[(3R)-1-(2-methoxyethyl)pyrrolidin-3-yl]oxyphenyl]methyl]-9-hydroxy-5-methyl-7-oxo-N-[4-(trifluoromethyl)-2-[6-(trifluoromethyl)pyrimidin-4-yl)phenyl]-5,6-diazaspiro[3.5]non-8-ene-8-carboxamide]
Rate of uptake inhibition (%) (1 µM): 30%

CN1[C@@H](C(C)(C)C)C(O)=C(C(=O)Nc2ccc(C(F)(F)F)cc2C(F)(F)F)C(=O)N1Cc1ccc(OCCN2CCOCC2)c(F)c1F [Example 277]
Rate of uptake inhibition (%) (1 µM): 41%

CN(C)S(=O)(=O)c1ccc(-c2cc(C(F)(F)F)ccc2NC(=O)C2=C(O)[C@@]3(C)CCCN3N(Cc3cccc(F)c3F)C2=O)s1 [Example 71]
Rate of uptake inhibition (%) (1 µM): 97%

C[C@]12CCCN1N(Cc1ccc(OCCN3CCOCC3)c(F)c1F)C(=O)C(C(=O)Nc1ccc(Cl)cc1-c1ccc(C(F)(F)F)nc1)=C2O [Example 102]
Rate of uptake inhibition (%) (1 µM): 65%

COCCN(C)CCNc1ccc(CN2C(=O)C(C(=O)Nc3ccc(C(F)(F)F)cc3-c3cc(C(F)(F)F)ncn3)=C(O)C3(CCCC3)N2C)c(F)c1F [Example 417, 7-(2,3-Difluoro-4-((2-((2-methoxyethyl)(methyl)amino)ethyl)amino)benzyl)-10-hydroxy-6-methyl-8-oxo-N-(4-(trifluoromethyl)-2-(6-(trifluoromethyl)pyrimidin-4-yl)phenyl)-6,7-diazaspiro[4.5]dec-9-ene-9-carboxamide]
Rate of uptake inhibition (%) (1 µM): 48%

C[C@]12CCCN1N(Cc1c(F)cc(C#CCCCCOC[C@H](O)CO)cc1F)C(=O)C(C(=O)Nc1ccc(C(F)(F)F)cc1-c1ccc(C(F)(F)F)nc1)=C2O.[Na+] [Example 143]
Rate of uptake inhibition (%) (1 µM): 71%

Cc1cccc(CN2C(=O)C(C(=O)Nc3ccc(C(F)(F)F)cc3-c3cc(C(F)(F)F)ncn3)=C(O)[C@@]3(C)CCCN23)c1 [Example 186]
Rate of uptake inhibition (%) (1 µM): 88%

Cc1nc(NC(=O)C2=C(O)C3(CCC3)N(C)N(Cc3cccc(F)c3F)C2=O)ccc1Br [Example 259]
Rate of uptake inhibition (%) (1 µM): 52%
